{
  "source": "paper PMC10962703",
  "about": "(bioRxiv, 2024)",
  "key": {"INS-1E cells": {"system": "INS-1E cells", "test": "Glucose-stimulated insulin secretion", "assay_type": "cell-based, rat"}, "human D3R [1]": {"molecular_target": "T1, human D3R (Homo sapiens, UniProt P35462)", "T1 sequence (P35462 whole entry)": "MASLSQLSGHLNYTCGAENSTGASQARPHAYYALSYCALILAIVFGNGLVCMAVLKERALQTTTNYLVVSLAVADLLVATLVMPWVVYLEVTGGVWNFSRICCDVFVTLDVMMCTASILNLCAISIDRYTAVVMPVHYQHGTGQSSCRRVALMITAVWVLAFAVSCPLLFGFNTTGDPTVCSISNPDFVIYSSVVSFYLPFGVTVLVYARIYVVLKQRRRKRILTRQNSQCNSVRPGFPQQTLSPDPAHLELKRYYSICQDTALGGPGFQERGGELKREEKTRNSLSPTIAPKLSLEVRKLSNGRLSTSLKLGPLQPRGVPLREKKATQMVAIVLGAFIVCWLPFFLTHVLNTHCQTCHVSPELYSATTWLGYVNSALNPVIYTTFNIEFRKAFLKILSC", "test": "biochemical"}, "[2]": {"test": "In vivo pharmacokinetics, plasma and brain levels", "design": "species or system CD1 mice", "conditions": "for Brain Conc.: mean ± SEM, n=3; for Kp at 0.25 h / Kp at 1 h / concentration at 15 min / concentration at 60 min: male, CD1, mouse, 10 mg/kg; for Kp at 0.25 h / Kp at 1 h: brain, iv; for concentration at 15 min / concentration at 60 min: plasma, intravenous"}, "human D3R [3]": {"molecular_target": "T1, human D3R", "test": "Radioligand competition binding, HEK293 membranes, hD3R", "conditions": "[3H]-(R)-(+)-7-OH-DPAT"}, "human D2R [4]": {"molecular_target": "T2, human D2R (Homo sapiens, UniProt P14416)", "test": "cell-based", "assay_type": "cell-based", "conditions": "for Emax: read-out: D2R mitogenesis Emax"}, "human D2R [5]": {"molecular_target": "T2, human D2R", "test": "biochemical"}, "human D3R [6]": {"molecular_target": "T1, human D3R", "test": "D3R-mediated mitogenesis", "assay_type": "cell-based", "conditions": "for Emax: read-out: D3R mitogenesis Emax"}, "human D2R [7]": {"molecular_target": "T2, human D2R", "conditions": "[3H]-(R)-(+)-7-OH-DPAT"}, "human DA D4.4 receptors": {"molecular_target": "T3, human DA D4.4 receptors (Homo sapiens, UniProt P21917)", "T3 sequence (P21917 1-419)": "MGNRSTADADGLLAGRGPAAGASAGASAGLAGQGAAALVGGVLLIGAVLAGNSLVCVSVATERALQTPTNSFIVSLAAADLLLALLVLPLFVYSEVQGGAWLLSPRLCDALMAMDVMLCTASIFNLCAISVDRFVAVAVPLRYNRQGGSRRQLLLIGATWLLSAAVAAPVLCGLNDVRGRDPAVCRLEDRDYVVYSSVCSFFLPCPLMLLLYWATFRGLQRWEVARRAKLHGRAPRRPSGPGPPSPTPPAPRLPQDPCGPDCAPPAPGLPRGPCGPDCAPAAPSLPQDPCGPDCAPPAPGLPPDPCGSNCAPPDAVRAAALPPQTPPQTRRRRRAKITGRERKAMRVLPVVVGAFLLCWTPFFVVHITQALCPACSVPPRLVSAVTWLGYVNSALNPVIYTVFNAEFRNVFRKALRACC", "assay_type": "cell-based", "conditions": "inhibition of forskolin-stimulated cAMP formation"}, "human D4R": {"system": "human D4R", "test": "Radioligand competition binding, HEK293 membranes, hD4R", "conditions": "[3H]-(R)-(+)-7-OH-DPAT"}, "[8]": {"system": "Western diet-fed wild-type C57BL/6J mice", "test": "Body weight in diet-induced obesity model", "assay_type": "in vivo", "conditions": "10 mg/kg i.p. daily, at 12 weeks"}, "[9]": {"test": "Mouse microsomal stability assay", "assay_type": "in vitro ADME", "conditions": "mouse liver microsomes + NADPH, 1 µM, 30 min"}, "[10]": {"system": "Western diet-fed wild-type C57BL/6J mice", "test": "Oral glucose tolerance testing in diet-induced obesity model", "assay_type": "in vivo", "conditions": "for fasting blood glucose: 6-h fast"}, "[11]": {"system": "Western diet-fed wild-type C57BL/6J mice", "test": "Insulin tolerance testing in diet-induced obesity model", "assay_type": "in vivo", "conditions": "10 mg/kg i.p. daily, 12 weeks"}, "human D2R [12]": {"molecular_target": "T2, human D2R", "assay_type": "cell-based"}, "Sprague-Dawley rats": {"system": "Sprague-Dawley rats", "test": "Intracerebroventricular L-DOPA infusion, plasma glucose and insulin", "assay_type": "in vivo", "conditions": "10 mM i.c.v. infusion, 5 µL/h, 3.5 h"}, "[13]": {"conditions": "10 mg/kg i.v., 60 min versus 15 min"}},
  "note": "Values joined by “and” are separate entries in the source; they are usually repeats but may differ in a detail not shown here. Equal values may be shown once. “Also recorded” adds a separate entry of the source.",
  "data": [
    {"smiles": "CCC[N+]1(C)CCC[C@@H]2Cc3n[nH]cc3C[C@H]21.[I-]", "note": "(stereo partly drawn) [AB01–59, (4aR,8aR)-5-Methyl-5-propyl-4,4a,5,6,7,8,8a,9-octahydro-2H-pyrazolo[3,4-g]quinolin-5-ium iodide]", "values": [
      {"measurement": "decrease in GSIS potency versus unmodified parent", "setting": "INS-1E cells", "value": 5.9, "unit": "fold"},
      {"measurement": "reduced efficacy in GSIS versus unmodified parent (decrease)", "setting": "INS-1E cells", "value": 48.4, "unit": "%"}
    ]},
    {"smiles": "CC(C)C[C@H]1C(=O)N2CCC[C@H]2[C@]2(O)O[C@](NC(=O)[C@@H]3C=C4c5cccc6[nH]c(Br)c(c56)C[C@H]4[N+](C)(C)C3)(C(C)C)C(=O)N12.[I-]", "note": "[AB01–60, (6aR,9R)-5-Bromo-9-(((2R,5S,10aS,10bS)-10b-hydroxy-5-isobutyl-2-isopropyl-3,6-dioxooctahydro-8H-oxazolo[3,2-a]pyrrolo[2,1-c]pyrazin-2-yl)carbamoyl)-7,7-dimethyl-4,6,6a,7,8,9-hexahydroindolo[4,3-fg]quinolin-7-ium iodide]", "values": [
      {"measurement": "Ki", "setting": "human D3R [1]", "value": "17.5 ± 4.9", "unit": "nM"},
      {"measurement": "Brain Conc.", "setting": "[2]; 10 mg/kg i.v., 15 min", "value": "1282.3 ± 130.7", "unit": "pmol/g"},
      {"measurement": "plasma levels greater compared to bromocriptine", "setting": "[2]; 10 mg/kg i.v., 60 min, listed as BrMeI", "value": "8 fold and ~ 8 fold"},
      {"measurement": "Brain Conc.", "setting": "[2]; 10 mg/kg i.v., 60 min", "value": "651.9 ± 133.7", "unit": "pmol/g"},
      {"measurement": "Kp at 0.25 h", "setting": "[2]", "value": "0.3 ± 0.03"},
      {"measurement": "Kp at 1 h", "setting": "[2]", "value": "0.51 ± 0.06"},
      {"measurement": "concentration at 15 min", "setting": "[2]", "value": "4260 ± 381", "unit": "nM"},
      {"measurement": "concentration at 60 min", "setting": "[2]", "value": "1280 ± 71.1", "unit": "nM"},
      {"measurement": "diminished D3R binding affinity compared to unmodified parent compound", "setting": "human D3R [3]", "value": 8.5, "unit": "fold"},
      {"measurement": "diminished potency in D2R-mediated mitogenesis versus unmodified parent", "setting": "human D2R [4]", "value": 15.6, "unit": "fold"},
      {"measurement": "Emax", "setting": "human D2R [4]", "value": 88, "unit": "%"},
      {"measurement": "Ki", "setting": "human D2R [5]", "value": "3.14 ± 0.34", "unit": "nM"},
      {"measurement": "decrease in GSIS potency versus unmodified parent", "setting": "INS-1E cells", "value": 57.7, "unit": "fold"},
      {"measurement": "EC50", "setting": "human D3R [6]", "value": "38 ± 11", "unit": "nM"},
      {"measurement": "diminished potency in D3R-mediated mitogenesis versus unmodified parent", "setting": "human D3R [6]", "value": 11.2, "unit": "fold"},
      {"measurement": "Emax", "setting": "human D3R [6]", "value": 91, "unit": "%"},
      {"measurement": "D3R/D2R ratio of binding affinity", "setting": "human D2R [7]", "value": 5.57},
      {"measurement": "diminished D2R binding affinity compared to unmodified parent compound", "setting": "human D2R [7]", "value": 5.3, "unit": "fold"}
    ]},
    {"smiles": "Cc1cccc(NC(=O)C[N+]2(C)CCC(c3ccccc3)CC2)c1.[I-]", "note": "(stereo not shown) [AB01–102, 1-Methyl-1-(2-oxo-2-(m-tolylamino)ethyl)-4-phenylpiperidin-1-ium iodide]", "values": [
      {"measurement": "diminished potency in D4R cAMP assay compared to unmodified parent", "setting": "human DA D4.4 receptors", "value": 731.9, "unit": "fold"},
      {"measurement": "functional behaviour in D4R cAMP assay", "setting": "human DA D4.4 receptors; relative to (−)-quinpirole", "value": "partial agonists"},
      {"measurement": "loss of D4R binding affinity compared to unmodified parent", "setting": "human D4R", "value": 61.7, "unit": "fold"}
    ]},
    {"smiles": "CC(C)C[C@H]1C(=O)N2CCC[C@H]2[C@]2(O)O[C@](NC(=O)[C@@H]3C=C4c5cccc6[nH]c(Br)c(c56)C[C@H]4N(C)C3)(C(C)C)C(=O)N12", "note": "[Bromocriptine, bromocriptine]", "values": [
      {"measurement": "Ki", "setting": "human D3R [1]", "value": "2.05 ± 0.56", "unit": "nM"},
      {"measurement": "Brain Conc.", "setting": "[2]; 10 mg/kg i.v., 15 min", "value": "995.2 ± 188.0", "unit": "pmol/g"},
      {"measurement": "Brain Conc.", "setting": "[2]; 10 mg/kg i.v., 60 min", "value": "71.1 ± 2.3", "unit": "pmol/g"},
      {"measurement": "decrease in brain level by 60 min post-administration", "setting": "[2]; [13]", "value": 92.9, "unit": "%"},
      {"measurement": "decrease in plasma level by 60 min post-administration", "setting": "[2]; [13]", "value": 88.2, "unit": "%"},
      {"measurement": "Kp at 0.25 h", "setting": "[2]", "value": "0.74 ± 0.11"},
      {"measurement": "Kp at 1 h", "setting": "[2]", "value": "0.45 ± 0.05"},
      {"measurement": "concentration at 15 min", "setting": "[2]", "value": "1340 ± 52.2", "unit": "nM"},
      {"measurement": "concentration at 60 min", "setting": "[2]", "value": "159 ± 15", "unit": "nM"},
      {"measurement": "body weight versus vehicle", "setting": "[8]", "value": "neither systemic bromocriptine nor BrMeI treatments had significant effects on weight; also recorded: no significant effect"},
      {"measurement": "Emax", "setting": "human D2R [4]", "value": 99, "unit": "%"},
      {"measurement": "% drug remaining", "setting": "[9]", "value": "entirely metabolized"},
      {"measurement": "% drug remaining", "setting": "[9]; listed as bromocriptine", "value": "complete disappearance"},
      {"measurement": "Ki", "setting": "human D2R [5]", "value": "0.59 ± 0.17", "unit": "nM"},
      {"measurement": "glucose tolerance (OGTT) versus vehicle", "setting": "[10]; 10 mg/kg i.p. daily, 12 weeks", "value": "significant improvements in glucose tolerance; also recorded: improvement in glucose tolerance"},
      {"measurement": "fasting blood glucose", "setting": "[10]; 10 mg/kg i.p. daily, 12 weeks", "value": "significantly lower fasting blood glucose"},
      {"measurement": "fasting blood glucose", "setting": "[10]; 10 mg/kg i.p. daily, 12 weeks, listed as bromocriptine", "value": "significantly lower fasting glucose"},
      {"measurement": "glucose tolerance (OGTT) versus i.c.v. vehicle", "setting": "[10]; i.c.v. daily, 8 weeks (10 mg/kg)", "value": "did not significantly modify glucose tolerance; also recorded: no significant effect on glucose tolerance"},
      {"measurement": "glucose tolerance", "setting": "[10]; systemic administration, 8 weeks, data not shown", "value": "sufficient to improve glucose tolerance"},
      {"measurement": "EC50", "setting": "human D3R [6]", "value": "3.4 ± 1.1", "unit": "nM"},
      {"measurement": "insulin sensitivity / blood glucose during ITT versus vehicle", "setting": "[11]; 1.5 U/kg insulin", "value": "significant improvements in insulin sensitivity"},
      {"measurement": "plasma insulin during ITT", "setting": "[11]; initial 15 min of ITT", "value": "significantly enhanced plasma insulin levels"},
      {"measurement": "less efficacy than DA in Gαi1 recruitment to D2R", "setting": "human D2R [12]", "value": 47, "unit": "%"},
      {"measurement": "D3R/D2R ratio of binding affinity", "setting": "human D2R [7]", "value": 3.46}
    ]},
    {"smiles": "CN[C@@H]1Cc2cccc3[nH]c(=O)n(c23)C1", "note": "[Sumanirole, sumanirole]", "values": [
      {"measurement": "Emax", "setting": "human D2R [4]", "value": 110, "unit": "%"},
      {"measurement": "EC50", "setting": "human D3R [6]", "value": "224 ± 24", "unit": "nM"},
      {"measurement": "Emax", "setting": "human D3R [6]", "value": 180, "unit": "%"}
    ]},
    {"smiles": "N[C@@H](Cc1ccc(O)c(O)c1)C(=O)O", "note": "[L-DOPA]", "values": [
      {"measurement": "plasma glucose versus saline vehicle", "setting": "Sprague-Dawley rats", "value": "did not significantly impact"},
      {"measurement": "plasma insulin versus saline vehicle", "setting": "Sprague-Dawley rats", "value": "did not significantly impact"}
    ]}
  ]
}
